Source: patent US11827628B2, “Compositions and methods for inhibition of the JAK pathway” (Rigel Pharmaceuticals, Inc., priority 2005, dated 2023)

System: up-regulation of ICAM-1 (CD54) by IFNγ in A549 lung epithelial cells
Assay: A549 Epithelial Line Stimulated with IFNγ (ICAM-1 surface expression, FACS)
Type: cell-based, human
Settings: A549 epithelial line stimulated with IFNγ; ICAM-1 expression by FACS; read-out: IC50, Example 43
How it was run: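 A549 cells pre-incubated 1 h with compound (30 μM to 14 nM, 5% FBS, 0.3% DMSO), then stimulated with IFNγ (75 ng/mL) for 24 h. Surface ICAM-1 stained with APC anti-CD54 and read by flow cytometry; geometric mean of live-gated events plotted against concentration for EC50.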

| Molecule | IC50 [µM] |
| --- | --- |
| Cc1ccc(Nc2ncc(F)c(Nc3ccc(OC4CCCN(C)C4)c(Cl)c3)n2)cc1S(N)(=O)=O (racemic) [II-3, Racemic N2-(3-aminosulfonyl-4-methylphenyl)-N4-{3-chloro-4-[(1-methylpiperidin-3-yl)oxy]phenyl}-5-fluoro-2,4-pyrimidinediamine] | 11.9 |
| Cc1cc(Nc2nc(Nc3ccc(S(N)(=O)=O)cc3)ncc2F)ccc1OCC#N [Compound I-22, N2-(4-Aminosulfonyl)phenyl-N4-(4-cyanomethoxy-3-methyl)phenyl-5-fluoro-2,4-pyrimidinediamine] | 14.4 |
| N#CCOc1ccc(Nc2nc(Nc3ccc(Cl)c(S(N)(=O)=O)c3)ncc2F)cc1 [Compound I-21, N2-(3-Aminosulfonyl-4-chlorophenyl)-N4-(4-cyanomethoxy)phenyl-5-fluoro-2,4-pyrimidinediamine] | 22.7 |
| Cc1cc(COc2ccc(Nc3nc(Nc4cc(C)c(F)c(S(N)(=O)=O)c4)ncc3F)cc2)no1 [Compound I-217, N2-(3-Aminosulfonyl-4-fluoro-5-methylphenyl)-5-fluoro-N4-[4-(5-methylisoxazol-3-yl)methyleneoxyphenyl]-2,4-pyrimidinediamine] | 36.6 |
| CCN(CC)CCNS(=O)(=O)c1ccc(Nc2ncc(F)c(Nc3ccc(OCc4cc(C)on4)c(C)c3)n2)cc1 [Compound I-245, N2-[4-(2-N,N-Diethylaminoethyl)aminosulfonylphenyl)-5-fluoro-N4-[3-methyl-4-(5-methylisoxazol-3-yl)methyleneoxyphenyl]-2,4-pyrimidinediamine] | 16.7 |
| N#CCc1ccc(Nc2nc(Nc3cccc(S(N)(=O)=O)c3)ncc2F)cc1 [III-4, N2-(3-Aminosulfonyl)phenyl-N4-(4-cyanomethyl)phenyl-5-fluoro-2,4-pyrimidinediamine] | 8.37 |
| N2-[3-Aminosulfonyl-4-(4-methylpiperazin-1-yl)phenyl]-5-fluoro-N4-[2-fluoro-4-(5-methylisoxazol-3-yl)methyleneoxyphenyl]-2,4-pyrimidinediamine [Compound I-251] | 34.9 |
| Cc1cc(COc2ccc(Nc3nc(Nc4cc(Cl)c(C)c(S(N)(=O)=O)c4)ncc3F)cc2F)no1 [Compound I-223, N2-(3-Aminosulfonyl-5-chloro-4-methylphenyl)-5-fluoro-N4-[3-fluoro-4-(5-methylisoxazol-3-yl)methyleneoxyphenyl]-2,4-pyrimidinediamine] | 9.09 |
| CCN(CC)CCNS(=O)(=O)c1cccc(Nc2ncc(F)c(Nc3ccc(OCc4cc(C)on4)c(C)c3)n2)c1 [Compound I-244, N2-[3-(2-N,N-Diethylaminoethyl)aminosulfonylphenyl)-5-fluoro-N4-[3-methyl-4-(5-methylisoxazol-3-yl)methyleneoxyphenyl]-2,4-pyrimidinediamine] | 14.7 |
| N#CCc1ccc(Nc2nc(Nc3ccc(Cl)c(S(N)(=O)=O)c3)ncc2F)cc1 [III-8, N2-(3-Aminosulfonyl-4-chloro)phenyl-N4-(4-cyanomethyl)phenyl-5-fluoro-2,4-pyrimidinediamine] | 14.5 |
| N#CCCc1ccc(Nc2nc(Nc3ccc(F)c(S(N)(=O)=O)c3)ncc2F)cc1 [III-16, N2-(3-Aminosulfonyl-4-fluorophenyl)-N4-[4-(cyanoethylene)phenyl]-5-fluoro-2,4-pyrimidinediamine] | 7.24 |
| Cc1noc(COc2ccc(Nc3nc(Nc4ccc(C)c(S(N)(=O)=O)c4)ncc3F)cc2)n1 [Compound I-259, N2-(3-Aminosulfonyl-4-methylphenyl)-5-fluoro-N4-[4-(3-methyl-1,2,4-oxadiazol-5-yl)methyleneoxyphenyl]-2,4-pyrimidinediamine] | 7.51 |
| CN1CCN(S(=O)(=O)c2cccc(Nc3ncc(F)c(Nc4ccc(OCC#N)cc4)n3)c2)CC1 [Compound I-19, N4-(4-Cyanomethoxy)phenyl-5-fluoro-N2-[3-(4-methylpiperazin-1-yl)sulfonyl]phenyl-2,4-pyrimidinediamine] | 24.9 |
| Cc1cc(COc2ccc(Nc3nc(Nc4ccc(C)c(S(N)(=O)=O)c4)ncc3F)cc2C)no1 [Compound I-234, N2-(3-Aminosulfonyl-4-methylphenyl)-5-fluoro-N4-[3-methyl-4-(5-methylisoxazol-3-yl)methyleneoxyphenyl]-2,4-pyrimidinediamine] | 8.16 |
| Cc1cc(Nc2nc(Nc3ccc(S(N)(=O)=O)cc3)ncc2F)cc(C)c1OCC#N [Compound I-25, N2-(4-Aminosulfonyl)phenyl-N4-(4-cyanomethoxy-3,5-dimethyl)phenyl-5-fluoro-2,4-pyrimidinediamine] | 25.3 |
| CNS(=O)(=O)c1cc(Nc2ncc(F)c(Nc3ccc(OCc4nc(C)no4)cc3)n2)ccc1C [Compound I-260, 5-Fluoro-N2-[3-N-(methyl)aminosulfonyl-4-methylphenyl)-N4-[4-(3-methyl-1,2,4-oxadiazol-5-yl)methyleneoxyphenyl]-2,4-pyrimidinediamine] | 8.44 |
| CNS(=O)(=O)c1cc(Nc2ncc(F)c(Nc3cccc(OCc4nc(C)no4)c3)n2)ccc1C [Compound I-255, 5-Fluoro-N2-[3-(N-methylaminosulfony)-4-methylphenyl]-N4-[3-(3-methyl-1,2,4-oxadiazol-5-yl)methyleneoxyphenyl]-2,4-pyrimidinediamine] | 39.3 |
| Cc1nc(COc2ccc(Nc3nc(Nc4cccc(S(N)(=O)=O)c4)ncc3F)cc2)no1 [Compound I-276, N2-(3-Aminosulfonyl)phenyl-5-fluoro-N4-[4-(5-methyl-1,2,4-oxadiazol-3-yl)methoxy]phenyl-2,4-pyrimidinediamine] | 8.09 |
| Cc1cc(COc2ccc(Nc3nc(Nc4cc(C)c(F)c(S(N)(=O)=O)c4)ncc3F)cc2F)no1 [Compound I-224, N2-(3-Aminosulfonyl-4-fluoro-5-methylphenyl)-5-fluoro-N4-[3-fluoro-4-(5-methylisoxazol-3-yl)methyleneoxyphenyl]-2,4-pyrimidinediamine] | 11.3 |
| Cc1noc(COc2cccc(Nc3nc(Nc4cccc(S(N)(=O)=O)c4)ncc3F)c2)n1 [Compound I-252, N2-(3-Aminosulfonylphenyl)-5-fluoro-N4-[3-(3-methyl-1,2,4-oxadiazol-5-yl)methyleneoxyphenyl]-2,4-pyrimidinediamine] | 74.2 |
| Cc1nnc(COc2ccc(Nc3nc(Nc4ccc(F)c(S(N)(=O)=O)c4)ncc3F)cc2)o1 [Compound I-278, N2-(3-Aminosulfonyl-4-fluorophenyl)-5-fluoro-N4-[4-(5-methyl-1,3,4-oxadiazol-2-yl)methyleneoxyphenyl]-2,4-pyrimidinediamine] | 11 |

The remaining lines, values ahead:

| IC50 [µM] | Molecule |
| --- | --- |
| 3.68 | 5-Fluoro-N4-[4-(3-methyl-1,2,4-oxadiazol-3-yl)methyleneoxyphenyl]-N2-[(3-N-propanamido)sulfonylphenyl)]-2,4-pyrimidinediamine [Compound I-262] |
| 6.91 | Cc1nnc(COc2ccc(Nc3nc(Nc4cccc(S(N)(=O)=O)c4)ncc3F)cc2)o1 [Compound I-277, N2-(3-aminosulfonylphenyl)-5-fluoro-N4-[4-(5-methyl-1,3,4-oxadiazol-2-yl)methyleneoxyphenyl]-2,4-pyrimidinediamine] |
| 2.35 | N#CCOc1ccc(Nc2nc(Nc3cccc(S(N)(=O)=O)c3)ncc2F)cc1 [Compound I-17, N2-(3-Aminosulfonyl)phenyl-N4-(4-cyanomethoxy)phenyl-5-fluoro-2,4-pyrimidinediamine] |
| 4.66 | Cc1ccc(Nc2ncc(F)c(Nc3ccc(CCC#N)cc3)n2)cc1S(N)(=O)=O [III-15, N2-(3-Aminosulfonyl-4-methylphenyl)-N4-[4-(cyanoethylene)phenyl]-5-fluoro-2,4-pyrimidinediamine] |
| 3.48 | Cc1ccc(Nc2ncc(F)c(Nc3cc(C)c(OCC#N)c(C)c3)n2)cc1S(N)(=O)=O [Compound I-27, N2-(3-Aminosulfonyl-4-methyl)phenyl-N4-(4-cyanomethoxy-3,5-dimethyl)phenyl-5-fluoro-2,4-pyrimidinediamine] |
| 2.24 | Cc1ccc(Nc2ncc(C)c(Nc3ccc(CCC#N)cc3)n2)cc1S(N)(=O)=O [III-11] |
| 3.27 | Cc1cc(COc2ccc(Nc3nc(Nc4cc(C)c(Cl)c(S(N)(=O)=O)c4)ncc3F)cc2)no1 [Compound I-218, N2-(3-Aminosulfonyl-4-chloro-5-methylphenyl)-5-fluoro-N4-[4-(5-methylisoxazol-3-yl)methyleneoxyphenyl]-2,4-pyrimidinediamine] |
| 4.08 | Cc1noc(COc2ccc(Nc3nc(Nc4cc(C)c(Cl)c(S(N)(=O)=O)c4)ncc3F)cc2)n1 [Compound I-265, N2-(3-Aminosulfonyl-4-chloro-5-methylphenyl)-5-fluoro-N4-[4-(3-methyl-1,2,4-oxadiazol-5-yl)methyleneoxyphenyl]-2,4-pyrimidinediamine] |
| 7.16 | Cc1cc(COc2ccc(Nc3nc(Nc4ccc(C)c(S(N)(=O)=O)c4)ncc3F)cc2)no1 [Compound I-219, N2-(3-Aminosulfonyl-4-methylphenyl)-5-fluoro-N4-[4-(5-methylisoxazol-3-yl)methyleneoxyphenyl]-2,4-pyrimidinediamine] |
| 6.54 | Cc1ccc(Nc2ncc(F)c(Nc3ccc(OCC#N)cc3)n2)cc1S(N)(=O)=O [Compound I-20, N2-(3-Aminosulfonyl-4-methyl)phenyl-N4-(4-cyanomethoxy)phenyl-5-fluoro-2,4-pyrimidinediamine] |
| 3.6 | N#CCCc1ccc(Nc2nc(Nc3cccc(S(N)(=O)=O)c3)ncc2F)cc1 [III-14, N2-(3-aminosulfonylphenyl)-N4-[4-(cyanoethylene)phenyl]-5-fluoro-2,4-pyrimidinediamine] |
| 4.15 | NS(=O)(=O)c1cccc(Nc2ncc(F)c(Nc3cccc(CNC(=O)C4CC4)c3)n2)c1 [III-39, N2-(3-aminosulfonyl)phenyl-N4-(3-cyclopropylcarbonylaminomethyl)phenyl-5-fluoro-2,4-pyrimidinediamine] |
| 4.23 | Cc1cc(Nc2nc(Nc3cccc(S(N)(=O)=O)c3)ncc2F)cc(C)c1OCC#N [Compound I-26, N2-(3-Aminosulfonyl)phenyl-N4-(4-cyanomethoxy-3,5-dimethyl)phenyl-5-fluoro-2,4-pyrimidinediamine] |
